The values below come from patent publication US12157717B2, “Compounds for the treatment of bovine or swine respiratory disease” (Intervet Inc., priority 2018, dated 2024).

Holding throughout (type): cell-based
The test system of experiment [1] is Pasteurella multocida PM 6391 (ATCC 43137). The experiment in a line: MIC, broth-microdilution (CLSI), strain PM 6391. The following applies: Pasteurella multocida ATCC 43137, reference strain. The protocol: (§1) The Minimum inhibitory concentrations (MIC) of compounds according to the invention for a number of veterinary bacterial pathogens were determined by the broth-microdilution method according to CLSI document VETO 1-A4.
(§2) Microdilution trays containing a doubling dilution series of the test compound were used for the tests. The MIC results were interpreted according to the CLSI documents VET01-S3. The lowest concentration of compound at which no visible growth (i.e. no turbidity) detected by the unaided eye was recorded as the MIC.
For orientation: Broth dilution looks for growth in wells or tubes with falling amounts of substance.

Experiment [2] deals with Pasteurella multocida PM 6267 (P 2225 (L386)). The experiment in a line: MIC, broth-microdilution (CLSI), strain PM 6267. The conditions noted are these: Pasteurella multocida P 2225 (L386), reference strain (mouse infection strain). On the procedure: as §1, §2
The test system of experiment [3] is Mannheimia haemolytica MH 13065 (XB0446-6003.9). The experiment in a line: MIC, broth-microdilution (CLSI), strain MH 13065. The conditions noted are these: Mannheimia haemolytica XB0446-6003.9, BRD field isolate. On the procedure:
as §1, §2

The test system of experiment [4] is Mannheimia haemolytica MH 6357 (M7/2). The experiment is described as follows: MIC, broth-microdilution (CLSI), strain MH 6357. The following applies: Mannheimia haemolytica M7/2, reference strain (cattle infection strain). On the procedure:
as §1, §2

Experiment [5] deals with Mannheimia haemolytica MH 12587 (1071), macrolide-resistance: erm+, E+. The experiment in a line: MIC, broth-microdilution (CLSI), strain MH 12587. The following applies: Mannheimia haemolytica 1071, BRD field isolate. The protocol: as §1, §2
Experiment [6] deals with Mannheimia haemolytica MH 10720 (154). The experiment is described as follows: MIC, broth-microdilution (CLSI), strain MH 10720. The conditions noted are these: Mannheimia haemolytica 154, BRD field isolate. The protocol:
as §1, §2

In experiment [7] the test system is Pasteurella multocida PM 12080 (IV102277-0093). The experiment in a line: MIC, broth-microdilution (CLSI), strain PM 12080. The conditions noted are these: Pasteurella multocida IV102277-0093, BRD field isolate. On the procedure: as §1, §2
The test system of experiment [8] is Mannheimia haemolytica MH 13093 (XB0472-6014.1). The experiment in a line: MIC, broth-microdilution (CLSI), strain MH 13093. The following applies: Mannheimia haemolytica XB0472-6014.1, BRD field isolate. On the procedure:
as §1, §2

In experiment [9] the test system is Pasteurella multocida PM 10775 (080130003051). The experiment is described as follows: MIC, broth-microdilution (CLSI), strain PM 10775. The conditions noted are these: Pasteurella multocida 080130003051, BRD field isolate. On the procedure:
as §1, §2

The test system of experiment [10] is Mannheimia haemolytica MH 6374 (ATCC 33396). The experiment in a line: MIC, broth-microdilution (CLSI), strain MH 6374. The following applies: Mannheimia haemolytica ATCC 33396, reference strain. On the procedure: as §1, §2

Converted amounts (≈) assume the structure as drawn. A value given as a limit tells only on which side of the number the result lay.

In the case of `CNC(=O)C(NC(=O)c1ccc(C#Cc2ccc(CNCc3ccc(C)cc3)cc2)cc1)C(=O)NO` (stereo not shown) [Compound 16], in [1], the “MIC PM 6391” value came out at 0.4 µM (≈ 0.194 µg/mL). Moreover, the “MIC PM 6267” value in [2] is at most 0.1 µM. The “MIC MH 13065” value in experiment [3] stood at 0.8 µM (≈ 0.388 µg/mL). For the same molecule, in experiment [4], the “MIC MH 6357” value was determined as 0.4 µM (≈ 0.194 µg/mL). The “MIC MH 12587” value in experiment [5] stood at 1.6 µM (≈ 0.775 µg/mL). For the same molecule, the “MIC MH 10720” value in experiment [6] was 0.2 µM (≈ 0.0969 µg/mL). Moreover, the “MIC PM 12080” value in experiment [7] was 0.2 µM (≈ 0.0969 µg/mL). The “MIC MH 13093” value in experiment [8] was 1.6 µM (≈ 0.775 µg/mL). Further, the “MIC PM 10775” value in experiment [9] was at most 0.1 µM. Also, the “MIC MH 6374” value in [10] came out at 0.8 µM (≈ 0.388 µg/mL).
Take `CNC(=O)C(NC(=O)c1ccc(C#Cc2ccc(CNCC3CCCO3)cc2)cc1)C(=O)NO` (stereo not shown) [Compound 17]: the “MIC PM 6391” value in experiment [1] came out at 0.4 µM (≈ 0.186 µg/mL). The “MIC PM 6267” value in experiment [2] was at most 0.1 µM. Moreover, the “MIC MH 13065” value in experiment [3] was determined as 3.1 µM (≈ 1.44 µg/mL). The “MIC MH 6357” value in [4] stood at 3.1 µM (≈ 1.44 µg/mL). The “MIC MH 12587” value in [5] is 12.5 µM (≈ 5.81 µg/mL). Further, the “MIC MH 10720” value in [6] was found to be 0.8 µM (≈ 0.372 µg/mL). Also, in [7], the “MIC PM 12080” value stood at 0.2 µM (≈ 0.0929 µg/mL). The “MIC MH 13093” value in experiment [8] is 12.5 µM (≈ 5.81 µg/mL). For the same molecule, the “MIC PM 10775” value in [9] is at most 0.1 µM. In [10], the “MIC MH 6374” value was found to be 6.3 µM (≈ 2.93 µg/mL).
In the case of `CNC(=O)C(NC(=O)c1ccc(C#Cc2ccc(CNCc3nccs3)cc2)cc1)C(=O)NO` (stereo not shown) [Compound 18], in [1], the “MIC PM 6391” value was at most 0.1 µM. Also, the “MIC PM 6267” value in experiment [2] was at most 0.1 µM. For the same molecule, in [3], the “MIC MH 13065” value turned out to be 0.4 µM (≈ 0.191 µg/mL). Besides, the “MIC MH 6357” value in experiment [4] came to 0.4 µM (≈ 0.191 µg/mL). The “MIC MH 12587” value in experiment [5] stood at 0.8 µM (≈ 0.382 µg/mL). Also, the “MIC MH 10720” value in [6] worked out at 0.2 µM (≈ 0.0955 µg/mL). Further, in [7], the “MIC PM 12080” value is at most 0.1 µM. Moreover, the “MIC MH 13093” value in [8] amounted to 0.4 µM (≈ 0.191 µg/mL). For the same molecule, the “MIC PM 10775” value in [9] was at most 0.1 µM. Moreover, in experiment [10], the “MIC MH 6374” value was found to be 0.4 µM (≈ 0.191 µg/mL).
Consider `CNC(=O)C(NC(=O)c1ccc(C#Cc2ccc(CNCC(F)(F)F)cc2)cc1)C(=O)NO` (stereo not shown) [Compound 19], for which the “MIC PM 6391” value in experiment [1] is at most 0.1 µM. The “MIC PM 6267” value in experiment [2] is at most 0.1 µM. The “MIC MH 13065” value in experiment [3] is 0.2 µM (≈ 0.0925 µg/mL). In addition, in [4], the “MIC MH 6357” value came out at 0.2 µM (≈ 0.0925 µg/mL). Besides, the “MIC MH 12587” value in experiment [5] turned out to be 0.8 µM (≈ 0.37 µg/mL). Also, the “MIC MH 10720” value in experiment [6] was at most 0.1 µM. Also, in [7], the “MIC PM 12080” value was at most 0.1 µM. Also, the “MIC MH 13093” value in [8] is 0.2 µM (≈ 0.0925 µg/mL). For the same molecule, the “MIC PM 10775” value in experiment [9] was at most 0.1 µM. Also, the “MIC MH 6374” value in [10] is 0.4 µM (≈ 0.185 µg/mL).
Turning to `C#CCNCc1ccc(C#Cc2ccc(C(=O)NC(C(=O)NC)C(=O)NO)cc2)cc1` (stereo not shown) [Compound 20], in experiment [1], the “MIC PM 6391” value is at most 0.1 µM. For the same molecule, in experiment [2], the “MIC PM 6267” value is at most 0.1 µM. Further, in experiment [3], the “MIC MH 13065” value stood at 0.2 µM (≈ 0.0837 µg/mL). In [4], the “MIC MH 6357” value is 0.2 µM (≈ 0.0837 µg/mL). Besides, the “MIC MH 12587” value in experiment [5] stood at 0.8 µM (≈ 0.335 µg/mL). Further, in [6], the “MIC MH 10720” value is at most 0.1 µM. In experiment [7], the “MIC PM 12080” value was at most 0.1 µM. Moreover, the “MIC MH 13093” value in experiment [8] was determined as 0.4 µM (≈ 0.167 µg/mL). Moreover, the “MIC PM 10775” value in [9] was at most 0.1 µM. Besides, the “MIC MH 6374” value in experiment [10] came to 0.2 µM (≈ 0.0837 µg/mL).
On to `CNC(=O)C(C(=O)NO)N(C)C(=O)c1ccc(C#Cc2ccc(CNCCOC)cc2)cc1` (stereo not shown) [Compound 21], for which the “MIC PM 6391” value in experiment [1] stood at 3.1 µM (≈ 1.4 µg/mL). In [2], the “MIC PM 6267” value was 1.6 µM (≈ 0.724 µg/mL). For the same molecule, in experiment [3], the “MIC MH 13065” value worked out at 3.1 µM (≈ 1.4 µg/mL). The “MIC MH 6357” value in experiment [4] amounted to 3.1 µM (≈ 1.4 µg/mL). Also, in experiment [5], the “MIC MH 12587” value is 12.5 µM (≈ 5.66 µg/mL). The “MIC MH 10720” value in experiment [6] stood at 1.6 µM (≈ 0.724 µg/mL). Moreover, the “MIC PM 12080” value in experiment [7] was 1.6 µM (≈ 0.724 µg/mL). Further, the “MIC MH 13093” value in experiment [8] turned out to be 12.5 µM (≈ 5.66 µg/mL). The “MIC PM 10775” value in experiment [9] came out at 0.4 µM (≈ 0.181 µg/mL). For the same molecule, the “MIC MH 6374” value in experiment [10] worked out at 6.3 µM (≈ 2.85 µg/mL).
For the molecule `CNC(=O)C(C(=O)NO)N(C)C(=O)c1ccc(C#Cc2ccc(CN3CCOCC3)cc2)cc1` (stereo not shown) [Compound 22], in [1], the “MIC PM 6391” value stood at 0.4 µM (≈ 0.186 µg/mL). In experiment [2], the “MIC PM 6267” value was at most 0.1 µM. The “MIC MH 13065” value in [3] turned out to be 3.1 µM (≈ 1.44 µg/mL). Further, the “MIC MH 6357” value in experiment [4] is 1.6 µM (≈ 0.743 µg/mL). Further, the “MIC MH 12587” value in experiment [5] is 6.3 µM (≈ 2.93 µg/mL). Further, the “MIC MH 10720” value in experiment [6] was 0.4 µM (≈ 0.186 µg/mL). For the same molecule, the “MIC PM 12080” value in experiment [7] came out at 0.4 µM (≈ 0.186 µg/mL). Further, in [8], the “MIC MH 13093” value amounted to 3.1 µM (≈ 1.44 µg/mL). The “MIC PM 10775” value in experiment [9] is at most 0.1 µM. In addition, the “MIC MH 6374” value in [10] is 1.6 µM (≈ 0.743 µg/mL).
